Source: patent publication US20100004234A1, “SPECIFIC KINASE INHIBITORS” (Kosan Biosciences Incorporated, priority 2004, published 2010)

Columns and labels:
Assay in all cases: Kinase panel, residual activity
Format in all cases: biochemical
Conditions in all cases: read-out: Percent residual activity
FGFR3(h) = FGFR3(h) (Homo sapiens, UniProt P22607)
Method: (§1) In this panel of 124 kinases, 18 of the 19 kinases identified as having an active site cysteine were inhibited to some extent by hypothemycin at a concentration of 0.2 μM and/or 2 μM.

MAPKAP-K3(h) = MAPKAP-K3(h) (Homo sapiens, UniProt Q16644)
Method: as §1

cKit(D816V)(h) = cKit(D816V)(h) (Homo sapiens, UniProt P10721, D816V)
Method: as §1

ALK(h) = ALK(h) (Homo sapiens, UniProt Q9UM73)
Method: as §1

IKKα(h) = IKKα(h) (Homo sapiens, UniProt O15111)
Method: as §1

Ros(h) = Ros(h) (Homo sapiens, UniProt P08922)
Method: as §1

PAK4(h) = PAK4(h) (Homo sapiens, UniProt O96013)
Method: as §1

JNK1α1(h) = JNK1α1(h) (Homo sapiens, UniProt P45983)
Method: as §1

JNK2α2(h) = JNK2α2(h) (Homo sapiens, UniProt P45984)
Method: as §1

KDR = KDR (Homo sapiens, UniProt P35968)
Method: as §1

NEK6(h) = NEK6(h) (Homo sapiens, UniProt Q9HC98)
Method: as §1

PKCη(h) = PKCη(h) (Homo sapiens, UniProt P24723)
Method: as §1

IRAK4(h) = IRAK4(h) (Homo sapiens, UniProt Q9NWZ3)
Method: as §1

Aurora-A(h) = Aurora-A(h) (Homo sapiens, UniProt O14965)
Method: as §1

Ret(h) = Ret(h) (Homo sapiens, UniProt P07949)
Method: as §1

PKCδ(h) = PKCδ(h) (Homo sapiens, UniProt Q05655)
Method: as §1

Axl(h) = Axl(h) (Homo sapiens, UniProt P30530)
Method: as §1

Flt3(h) = Flt3(h) (Homo sapiens, UniProt P36888)
Method: as §1

PKCγ(h) = PKCγ(h) (Homo sapiens, UniProt P05129)
Method: as §1

GSK3α(h) = GSK3α(h) (Homo sapiens, UniProt P49840)
Method: as §1

EGFR(h) = EGFR(h) (Homo sapiens, UniProt P00533)
Method: as §1

CDK5/p35(h) = CDK5/p35(h) (Homo sapiens, UniProt Q00535)
Method: as §1

PAK2(h) = PAK2(h) (Homo sapiens, UniProt Q13177)
Method: as §1

BTK(h) = BTK(h) (Homo sapiens, UniProt Q06187)
Method: as §1

MAPK1(h) = MAPK1(h) (Homo sapiens, UniProt P27361)
Method: as §1

DDR2(h) = DDR2(h) (Homo sapiens, UniProt Q16832)
Method: as §1

TrkB(h) = TrkB(h) (Homo sapiens, UniProt Q16620)
Method: as §1

PKCζ(h) = PKCζ(h) (Homo sapiens, UniProt Q05513)
Method: as §1

SGK(h) = SGK(h) (Homo sapiens, UniProt O00141)
Method: as §1

SAPK4(h) = SAPK4(h) (Homo sapiens, UniProt O15264)
Method: as §1

SAPK2a(h) = SAPK2a(h) (Homo sapiens, UniProt Q16539)
Method: as §1

ErbB4(h) = ErbB4(h) (Homo sapiens, UniProt Q15303)
Method: as §1

ROCK-I(h) = ROCK-I(h) (Homo sapiens, UniProt Q13464)
Method: as §1

Flt1(h) = Flt1(h) (Homo sapiens, UniProt P17948)
Method: as §1

PDGFRα(h) = PDGFRα(h) (Homo sapiens, UniProt P16234)
Method: as §1

PKBγ(h) = PKBγ(h) (Homo sapiens, UniProt Q9Y243)
Method: as §1

PAR-1Bα(h) = PAR-1Bα(h) (Homo sapiens, UniProt Q7KZI7)
Method: as §1

Chain of EGFR(h) (P00533 25-1210): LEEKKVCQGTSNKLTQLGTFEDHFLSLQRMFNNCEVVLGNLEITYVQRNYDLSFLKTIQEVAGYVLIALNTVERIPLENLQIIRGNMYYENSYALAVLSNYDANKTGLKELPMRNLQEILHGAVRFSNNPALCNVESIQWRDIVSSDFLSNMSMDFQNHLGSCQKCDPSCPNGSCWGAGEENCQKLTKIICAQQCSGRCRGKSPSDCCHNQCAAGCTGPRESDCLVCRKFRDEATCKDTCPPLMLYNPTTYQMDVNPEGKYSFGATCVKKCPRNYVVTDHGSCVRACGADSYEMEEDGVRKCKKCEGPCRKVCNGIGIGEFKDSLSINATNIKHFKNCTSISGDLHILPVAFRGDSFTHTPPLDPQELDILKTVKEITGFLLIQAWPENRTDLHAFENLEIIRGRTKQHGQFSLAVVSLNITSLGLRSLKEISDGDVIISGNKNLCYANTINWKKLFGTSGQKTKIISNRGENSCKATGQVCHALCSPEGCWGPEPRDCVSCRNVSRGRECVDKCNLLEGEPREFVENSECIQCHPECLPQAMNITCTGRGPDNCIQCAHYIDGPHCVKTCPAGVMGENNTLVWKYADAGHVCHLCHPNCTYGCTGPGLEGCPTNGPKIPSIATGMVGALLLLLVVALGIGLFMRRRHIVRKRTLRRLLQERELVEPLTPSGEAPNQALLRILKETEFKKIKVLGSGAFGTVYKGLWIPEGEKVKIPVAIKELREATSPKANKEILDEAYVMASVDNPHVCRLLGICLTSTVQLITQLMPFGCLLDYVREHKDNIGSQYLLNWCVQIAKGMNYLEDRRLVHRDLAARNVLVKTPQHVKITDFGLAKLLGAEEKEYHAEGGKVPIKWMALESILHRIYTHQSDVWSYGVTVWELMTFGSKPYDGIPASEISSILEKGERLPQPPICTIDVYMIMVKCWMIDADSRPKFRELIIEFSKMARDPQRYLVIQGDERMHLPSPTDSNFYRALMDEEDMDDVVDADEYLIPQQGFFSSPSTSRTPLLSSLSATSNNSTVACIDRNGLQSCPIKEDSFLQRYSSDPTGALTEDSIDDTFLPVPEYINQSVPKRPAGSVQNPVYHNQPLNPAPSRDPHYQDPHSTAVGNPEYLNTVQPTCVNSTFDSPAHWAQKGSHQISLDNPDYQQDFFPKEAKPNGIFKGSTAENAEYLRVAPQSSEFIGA
Chain of MAPK1(h) (P27361 whole entry): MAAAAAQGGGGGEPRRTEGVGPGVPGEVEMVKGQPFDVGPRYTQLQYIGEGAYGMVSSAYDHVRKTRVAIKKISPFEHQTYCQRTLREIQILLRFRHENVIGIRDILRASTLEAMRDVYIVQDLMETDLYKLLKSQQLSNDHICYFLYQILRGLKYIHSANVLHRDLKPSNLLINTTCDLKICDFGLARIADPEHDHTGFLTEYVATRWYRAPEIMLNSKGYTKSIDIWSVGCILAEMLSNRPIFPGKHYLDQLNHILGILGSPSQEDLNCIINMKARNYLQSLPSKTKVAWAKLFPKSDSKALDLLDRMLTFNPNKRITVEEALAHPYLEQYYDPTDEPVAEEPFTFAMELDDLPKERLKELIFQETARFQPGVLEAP
Chain of cKit(D816V)(h) (P10721 26-976 D816V): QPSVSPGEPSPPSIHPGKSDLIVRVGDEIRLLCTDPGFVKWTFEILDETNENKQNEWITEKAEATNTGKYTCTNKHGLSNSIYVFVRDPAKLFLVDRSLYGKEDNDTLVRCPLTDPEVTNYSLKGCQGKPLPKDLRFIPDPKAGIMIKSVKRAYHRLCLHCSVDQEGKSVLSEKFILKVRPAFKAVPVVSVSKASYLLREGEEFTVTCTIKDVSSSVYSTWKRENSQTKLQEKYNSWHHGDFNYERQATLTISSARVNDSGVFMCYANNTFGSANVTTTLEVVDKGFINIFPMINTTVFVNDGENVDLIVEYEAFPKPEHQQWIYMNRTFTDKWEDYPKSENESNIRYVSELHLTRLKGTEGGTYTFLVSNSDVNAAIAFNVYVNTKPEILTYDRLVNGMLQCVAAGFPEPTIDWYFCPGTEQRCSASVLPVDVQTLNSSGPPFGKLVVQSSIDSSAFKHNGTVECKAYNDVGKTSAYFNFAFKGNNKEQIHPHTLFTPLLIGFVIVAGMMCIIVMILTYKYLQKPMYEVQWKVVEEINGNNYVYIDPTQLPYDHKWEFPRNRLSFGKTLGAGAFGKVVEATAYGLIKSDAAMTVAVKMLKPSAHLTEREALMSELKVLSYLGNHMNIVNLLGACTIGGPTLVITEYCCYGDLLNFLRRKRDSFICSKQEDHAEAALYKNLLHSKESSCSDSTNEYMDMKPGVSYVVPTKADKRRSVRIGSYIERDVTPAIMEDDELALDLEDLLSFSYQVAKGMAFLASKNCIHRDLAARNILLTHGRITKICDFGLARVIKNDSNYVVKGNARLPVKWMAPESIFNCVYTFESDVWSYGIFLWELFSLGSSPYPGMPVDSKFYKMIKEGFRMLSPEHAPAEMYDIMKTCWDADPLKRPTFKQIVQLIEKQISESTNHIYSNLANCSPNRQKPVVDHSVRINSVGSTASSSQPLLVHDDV
Chain of Aurora-A(h) (O14965 whole entry): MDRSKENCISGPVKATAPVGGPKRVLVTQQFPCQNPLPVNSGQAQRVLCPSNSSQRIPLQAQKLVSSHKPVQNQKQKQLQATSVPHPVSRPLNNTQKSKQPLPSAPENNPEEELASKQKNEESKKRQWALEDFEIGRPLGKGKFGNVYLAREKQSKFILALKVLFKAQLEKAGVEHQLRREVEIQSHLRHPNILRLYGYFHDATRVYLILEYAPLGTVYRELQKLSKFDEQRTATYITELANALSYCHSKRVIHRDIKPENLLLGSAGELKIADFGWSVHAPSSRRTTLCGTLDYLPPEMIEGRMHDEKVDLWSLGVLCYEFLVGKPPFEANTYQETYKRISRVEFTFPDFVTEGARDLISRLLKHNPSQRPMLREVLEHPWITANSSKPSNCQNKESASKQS
Chain of Flt3(h) (P36888 27-993): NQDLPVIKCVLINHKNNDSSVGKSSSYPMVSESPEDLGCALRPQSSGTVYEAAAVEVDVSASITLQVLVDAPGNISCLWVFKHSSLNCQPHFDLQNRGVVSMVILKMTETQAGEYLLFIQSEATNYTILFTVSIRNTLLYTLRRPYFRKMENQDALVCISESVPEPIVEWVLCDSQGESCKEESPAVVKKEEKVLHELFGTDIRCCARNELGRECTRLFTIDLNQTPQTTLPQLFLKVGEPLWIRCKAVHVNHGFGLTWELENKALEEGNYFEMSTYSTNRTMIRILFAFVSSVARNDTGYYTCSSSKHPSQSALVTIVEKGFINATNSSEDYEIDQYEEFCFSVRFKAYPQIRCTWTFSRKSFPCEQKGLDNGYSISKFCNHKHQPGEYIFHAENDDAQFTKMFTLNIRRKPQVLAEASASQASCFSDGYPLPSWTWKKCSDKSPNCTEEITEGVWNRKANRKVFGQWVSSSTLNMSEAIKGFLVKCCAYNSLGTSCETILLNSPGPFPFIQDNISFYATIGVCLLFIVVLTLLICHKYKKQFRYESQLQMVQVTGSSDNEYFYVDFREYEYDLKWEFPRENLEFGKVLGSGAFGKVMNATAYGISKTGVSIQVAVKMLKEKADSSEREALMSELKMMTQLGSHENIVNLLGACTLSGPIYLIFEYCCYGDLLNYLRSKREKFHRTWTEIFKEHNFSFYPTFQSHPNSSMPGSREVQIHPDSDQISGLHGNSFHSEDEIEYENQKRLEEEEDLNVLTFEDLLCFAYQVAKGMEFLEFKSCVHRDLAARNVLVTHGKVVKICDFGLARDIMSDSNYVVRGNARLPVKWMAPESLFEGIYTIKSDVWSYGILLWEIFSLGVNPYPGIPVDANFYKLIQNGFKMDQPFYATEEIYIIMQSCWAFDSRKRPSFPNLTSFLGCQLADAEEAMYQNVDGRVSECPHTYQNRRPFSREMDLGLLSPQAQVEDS
Chain of TrkB(h) (Q16620 32-822): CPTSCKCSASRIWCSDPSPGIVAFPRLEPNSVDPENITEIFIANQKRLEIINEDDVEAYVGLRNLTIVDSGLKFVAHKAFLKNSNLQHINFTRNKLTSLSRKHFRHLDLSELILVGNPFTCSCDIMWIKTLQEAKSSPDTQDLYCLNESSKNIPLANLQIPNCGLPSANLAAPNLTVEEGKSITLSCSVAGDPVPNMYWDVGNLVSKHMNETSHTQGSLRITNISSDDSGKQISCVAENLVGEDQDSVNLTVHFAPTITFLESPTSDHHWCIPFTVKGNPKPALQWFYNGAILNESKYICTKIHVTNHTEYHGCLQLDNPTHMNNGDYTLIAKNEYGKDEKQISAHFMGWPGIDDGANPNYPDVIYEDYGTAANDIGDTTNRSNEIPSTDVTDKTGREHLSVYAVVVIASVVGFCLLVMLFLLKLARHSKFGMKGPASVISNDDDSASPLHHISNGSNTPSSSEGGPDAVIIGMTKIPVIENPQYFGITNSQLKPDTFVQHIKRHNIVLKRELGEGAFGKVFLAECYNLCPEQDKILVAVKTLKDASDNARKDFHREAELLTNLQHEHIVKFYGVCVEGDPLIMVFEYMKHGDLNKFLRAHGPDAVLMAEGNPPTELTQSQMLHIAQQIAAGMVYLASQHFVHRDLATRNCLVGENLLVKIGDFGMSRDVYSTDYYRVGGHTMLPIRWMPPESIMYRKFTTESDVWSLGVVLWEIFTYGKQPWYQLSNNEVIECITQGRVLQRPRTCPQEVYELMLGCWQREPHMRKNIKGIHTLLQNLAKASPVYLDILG
Chain of SAPK4(h) (O15264 whole entry): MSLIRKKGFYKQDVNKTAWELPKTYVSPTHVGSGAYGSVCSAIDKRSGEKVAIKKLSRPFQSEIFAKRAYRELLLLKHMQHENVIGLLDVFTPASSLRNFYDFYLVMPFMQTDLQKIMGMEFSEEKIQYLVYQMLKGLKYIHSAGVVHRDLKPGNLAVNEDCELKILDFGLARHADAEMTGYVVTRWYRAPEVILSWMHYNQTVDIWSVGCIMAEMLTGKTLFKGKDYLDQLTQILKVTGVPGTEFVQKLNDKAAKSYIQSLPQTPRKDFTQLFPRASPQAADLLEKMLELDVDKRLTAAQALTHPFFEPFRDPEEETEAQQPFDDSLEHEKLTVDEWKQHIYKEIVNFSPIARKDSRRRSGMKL

## COc1cc(O)c2c(c1)[C@H]1O[C@@H]1C[C@H](O)[C@H](O)C(=O)/C=C\C[C@H](C)OC2=O [Hypothemycin, hypothemycin]
FGFR3(h)
  remaining activity at 0.2 µM: 102%
MAPKAP-K3(h)
  remaining activity at 0.2 µM: 98%
cKit(D816V)(h); 0.2 μM
  remaining activity at 0.2 µM: 57%
cKit(D816V)(h); 2.0 μM
  remaining activity at 2 µM: 0%
ALK(h)
  remaining activity at 0.2 µM: 101%
IKKα(h)
  remaining activity at 0.2 µM: 101%
Ros(h)
  remaining activity at 0.2 µM: 97%
PAK4(h)
  remaining activity at 0.2 µM: 92%
JNK1α1(h)
  remaining activity at 0.2 µM: 97%
JNK2α2(h)
  remaining activity at 0.2 µM: 93%
KDR
  remaining activity at 2 µM: 15%
NEK6(h)
  remaining activity at 0.2 µM: 104%
PKCη(h)
  remaining activity at 0.2 µM: 97%
IRAK4(h)
  remaining activity at 0.2 µM: 84%
Aurora-A(h); 0.2 μM
  remaining activity at 0.2 µM: 87%
Aurora-A(h); 2.0 μM
  remaining activity at 2 µM: 91%
Ret(h)
  remaining activity at 0.2 µM: 104%
PKCδ(h)
  remaining activity at 0.2 µM: 96%
Axl(h)
  remaining activity at 0.2 µM: 110%
Flt3(h); 0.2 μM
  remaining activity at 0.2 µM: 6%
Flt3(h); 2.0 μM
  remaining activity at 2 µM: 3%
PKCγ(h)
  remaining activity at 0.2 µM: 98%
GSK3α(h); 0.2 μM
  remaining activity at 0.2 µM: 90%
GSK3α(h); 2.0 μM
  remaining activity at 2 µM: 88%
EGFR(h); 0.2 μM
  remaining activity at 0.2 µM: 106%
EGFR(h); 2.0 μM
  remaining activity at 2 µM: 94%
CDK5/p35(h)
  remaining activity at 0.2 µM: 103%
PAK2(h)
  remaining activity at 0.2 µM: 104%
BTK(h)
  remaining activity at 0.2 µM: 104%
MAPK1(h); 0.2 μM
  remaining activity at 0.2 µM: 79%
MAPK1(h); 2.0 μM
  remaining activity at 2 µM: 10%
DDR2(h)
  remaining activity at 0.2 µM: 92%
TrkB(h); 0.2 μM
  remaining activity at 0.2 µM: 58%
TrkB(h); 2.0 μM
  remaining activity at 2 µM: 18%
PKCζ(h)
  remaining activity at 0.2 µM: 94%
SGK(h)
  remaining activity at 0.2 µM: 99%
SAPK4(h)
  remaining activity at 0.2 µM: 101%
SAPK2a(h)
  remaining activity at 0.2 µM: 107%
ErbB4(h)
  remaining activity at 0.2 µM: 124%
ROCK-I(h)
  remaining activity at 0.2 µM: 121%
Flt1(h); 0.2 μM
  remaining activity at 0.2 µM: 2%
Flt1(h); 2.0 μM
  remaining activity at 2 µM: 7%
PDGFRα(h); 0.2 μM
  remaining activity at 0.2 µM: 77%
PDGFRα(h); 2.0 μM
  remaining activity at 2 µM: 20%
PKBγ(h)
  remaining activity at 0.2 µM: 102%
PAR-1Bα(h)
  remaining activity at 0.2 µM: 93%
